17 compounds from patent US11492345B2, “Compounds and their methods of use” (Praxis Precision Medicines, Inc., priority 2017, dated 2022) can be followed below.

Molecules are shown by their SMILES. A value given as a limit tells only on which side of the number the result lay.

T1 sequence (Q9UQD0 whole entry): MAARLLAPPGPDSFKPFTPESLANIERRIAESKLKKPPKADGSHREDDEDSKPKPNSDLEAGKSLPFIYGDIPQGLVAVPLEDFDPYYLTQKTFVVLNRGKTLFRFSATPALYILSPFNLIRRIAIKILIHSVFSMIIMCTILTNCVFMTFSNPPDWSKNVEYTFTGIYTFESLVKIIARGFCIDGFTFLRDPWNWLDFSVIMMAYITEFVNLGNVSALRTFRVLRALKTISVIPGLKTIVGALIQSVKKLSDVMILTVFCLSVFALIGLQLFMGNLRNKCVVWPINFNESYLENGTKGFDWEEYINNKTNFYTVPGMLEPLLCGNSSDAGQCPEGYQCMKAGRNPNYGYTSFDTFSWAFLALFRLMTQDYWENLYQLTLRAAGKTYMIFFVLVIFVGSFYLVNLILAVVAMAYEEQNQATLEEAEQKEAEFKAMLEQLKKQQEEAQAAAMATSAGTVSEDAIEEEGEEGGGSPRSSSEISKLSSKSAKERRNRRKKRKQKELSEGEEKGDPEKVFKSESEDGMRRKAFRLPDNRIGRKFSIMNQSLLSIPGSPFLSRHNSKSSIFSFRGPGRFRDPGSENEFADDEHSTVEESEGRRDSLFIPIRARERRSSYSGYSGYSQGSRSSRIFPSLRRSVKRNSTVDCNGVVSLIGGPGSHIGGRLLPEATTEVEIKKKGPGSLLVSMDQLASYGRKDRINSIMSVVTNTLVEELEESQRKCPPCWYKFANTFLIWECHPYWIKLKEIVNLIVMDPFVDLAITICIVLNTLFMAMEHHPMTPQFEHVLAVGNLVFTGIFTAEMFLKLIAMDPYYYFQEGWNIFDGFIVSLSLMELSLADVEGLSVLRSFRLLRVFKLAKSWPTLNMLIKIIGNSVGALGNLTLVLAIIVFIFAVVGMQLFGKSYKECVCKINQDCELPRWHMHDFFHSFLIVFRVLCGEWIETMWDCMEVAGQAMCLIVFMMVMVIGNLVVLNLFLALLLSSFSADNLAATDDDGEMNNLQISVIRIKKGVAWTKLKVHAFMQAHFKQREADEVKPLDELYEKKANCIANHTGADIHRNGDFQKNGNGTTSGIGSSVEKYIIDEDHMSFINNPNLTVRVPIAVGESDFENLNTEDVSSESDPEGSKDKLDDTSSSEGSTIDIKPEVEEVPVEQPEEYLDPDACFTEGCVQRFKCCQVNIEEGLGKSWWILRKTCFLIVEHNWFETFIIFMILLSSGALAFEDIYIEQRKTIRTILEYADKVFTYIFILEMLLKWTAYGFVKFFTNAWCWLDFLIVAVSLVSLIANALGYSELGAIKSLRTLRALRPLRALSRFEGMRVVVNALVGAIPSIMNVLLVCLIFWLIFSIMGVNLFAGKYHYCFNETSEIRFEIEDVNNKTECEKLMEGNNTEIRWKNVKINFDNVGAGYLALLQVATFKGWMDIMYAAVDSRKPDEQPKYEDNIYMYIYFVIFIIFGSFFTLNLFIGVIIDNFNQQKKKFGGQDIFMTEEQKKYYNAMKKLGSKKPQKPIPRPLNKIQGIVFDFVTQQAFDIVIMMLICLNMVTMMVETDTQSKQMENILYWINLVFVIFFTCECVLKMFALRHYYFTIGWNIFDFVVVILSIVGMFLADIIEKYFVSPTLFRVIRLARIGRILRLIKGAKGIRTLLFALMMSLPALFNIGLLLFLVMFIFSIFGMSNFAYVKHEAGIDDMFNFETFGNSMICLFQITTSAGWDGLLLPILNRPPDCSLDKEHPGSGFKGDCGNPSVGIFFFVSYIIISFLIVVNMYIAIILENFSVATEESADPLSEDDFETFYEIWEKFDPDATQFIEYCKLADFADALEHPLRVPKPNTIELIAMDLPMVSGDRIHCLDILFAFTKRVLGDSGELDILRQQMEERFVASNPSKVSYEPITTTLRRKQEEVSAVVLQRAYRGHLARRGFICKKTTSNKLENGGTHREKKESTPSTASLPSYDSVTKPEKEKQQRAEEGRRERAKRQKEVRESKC

The experiment addresses T1, human Nav1.6 (hNav1.6) (Homo sapiens, UniProt Q9UQD0).
T1 construct: expressed in transfected cells; host or cells: HEK-293 (G418 selection)
As to the kind of experiment: Modulation of late sodium current (INaL), PatchXpress electrophysiology. Conditions: HEK293; 1 μM compound; HEK-293 cells expressing recombinant human Nav channel; late current evoked by 300 nM ATX-II; steady-state inhibition; read-out: INaL v1.6 (1 μM, % Inhibition). Type of experiment: cell-based. The procedure:
Functional characterization of exemplary compounds to modulate INaL expressed by the Nav1.6 voltage-gated sodium channel was accomplished using the PatchXpress™ high throughput electrophysiology platform (Molecular Devices, Sunnyvale, Calif.). HEK-293 cells expressing recombinant, human Nav1.6 (hNav1.6) were grown in DMEM/high-glucose Dulbecco's modified, 10% FBS, 2 mM sodium pyruvate, 10 mM HEPES and 400 μg/mL G418. Cells were grown to 50%-80% confluency prior to harvesting. Trypsinized cells were washed, allowed to recover for 1 hour and then resuspended in extracellular recording solution at a concentration of 1×10^6 cells/ml. The onboard liquid handling facility of the PatchXpress was used for dispensing cells and applying test compounds. Nav late currents were evoked by the application of 300 nM ATX-II. INaL was evoked by depolarizing pulses to 0 mV for 200 ms from a non-inactivating holding potential (e.g., −120 mV) at a frequency of 0.1 Hz. INaL amplitude and stability were determined by analyzing the mean current amplitude over the final 20 ms of the test pulse. […] Percent steady-state inhibition of INaL was calculated as: [(INaL_compound)/(INaL_control)]*100, where INaL_compound and INaL_control represent INaL recorded in the presence or absence of compound, respectively.
Usually inhibition stands for the relative decrease from the control value, in per cent. Turning to `O=C(Cn1c(=O)oc2ccc(-c3ccc(OC(F)F)cc3)cc21)N1CCCC1` [Compound 148], the inhibition at 1 µM is less than 30%.

As for `Cn1cc(Cn2c(=O)oc3ccc(-c4ccc(OC(F)(F)F)cc4)nc32)cn1` [Compound 151], the inhibition at 1 µM is greater than 70%.

For `Cc1noc(C)c1Cn1c(=O)oc2ccc(-c3ccc(OC(F)(F)F)cc3)nc21` [Compound 152], the inhibition at 1 µM is less than 30%.

`Cc1nnc(Cn2c(=O)oc3ccc(-c4ccc(OC(F)(F)F)cc4)nc32)o1` [Compound 153]: the inhibition at 1 µM lay within 30 to 70%.

Take `Cc1oncc1Cn1c(=O)oc2ccc(-c3ccc(OC(F)(F)F)cc3)nc21` [Compound 154]: the inhibition at 1 µM was greater than 70%.

For `Cc1nnc(Cn2c(=O)oc3ccc(-c4ccc(OC(F)(F)F)cc4)nc32)s1` [Compound 155], the inhibition at 1 µM is greater than 70%.

With `Cc1cc(Cn2c(=O)oc3ccc(-c4ccc(OC(F)(F)F)cc4)nc32)no1` [Compound 156], the inhibition at 1 µM was greater than 70%.

`Cn1cnc(Cn2c(=O)oc3ccc(-c4ccc(OC(F)(F)F)cc4)nc32)n1` [Compound 157]: the inhibition at 1 µM lay in the range of 30 to 70%.

In the case of `Cn1nccc1Cn1c(=O)oc2ccc(-c3ccc(OC(F)(F)F)cc3)nc21` [Compound 158], the inhibition at 1 µM lay in the range of 30 to 70%.

Take `Cc1nc(Cn2c(=O)oc3ccc(-c4ccc(OC(F)(F)F)cc4)nc32)co1` [Compound 159]: the inhibition at 1 µM is greater than 70%.

For `Cc1cc(Cn2c(=O)oc3ccc(-c4ccc(OC(F)(F)F)cc4)nc32)on1` [Compound 160], the inhibition at 1 µM was greater than 70%.

For the compound `Cc1noc(Cn2c(=O)oc3ccc(-c4ccc(OC(F)(F)F)cc4)nc32)n1` [Compound 161], the inhibition at 1 µM is greater than 70%.

Take `Cc1nc(Cn2c(=O)oc3ccc(-c4ccc(OC(F)(F)F)cc4)nc32)no1` [Compound 162]: the inhibition at 1 µM was greater than 70%.

On to `Cn1cnnc1Cn1c(=O)oc2ccc(-c3ccc(OC(F)(F)F)cc3)nc21` [Compound 163], for which the inhibition at 1 µM is less than 30%.

`Cn1ncnc1Cn1c(=O)oc2ccc(-c3ccc(OC(F)(F)F)cc3)nc21` [Compound 164]: the inhibition at 1 µM fell in the range of 30 to 70%.

On to `O=c1oc2ccc(-c3ccc(OC(F)(F)F)cc3)nc2n1Cc1cn[nH]c1` [Compound 165], for which the inhibition at 1 µM fell in the range of 30 to 70%.

Regarding `Cc1n[nH]cc1Cn1c(=O)oc2ccc(-c3ccc(OC(F)(F)F)cc3)nc21` [Compound 167], the inhibition at 1 µM is less than 30%.
